Test system: 253994-281-T-J1-PDC KRAS-mutant spheroids with HUVEC/MSC, viability
Assay: Anticancer human tumor 253994-281-T-J1-PDC patient-derived colorectal carcinoma cell line growth inhibition [KRAS2]
Conditions: for IC50: curve of first compound; for viability, T/C: stronger effect = lower value
Procedure, shortened: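 KRAS-mutant tumor cells were grown as spheroids with HUVEC endothelial cells and human MSCs as stroma. Targeted agents were tested alone and with KRAS pathway inhibitors. Doses started at or near clinical Cmax, or 10 microM, descending half-log.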

[1] = second compound 0.1 µM, first compound 0.000316 µM
[2] = second compound 0.1 µM, first compound 0.001 µM
[3] = second compound 0.1 µM, first compound 0.00316 µM
[4] = second compound 0.1 µM, first compound 0.01 µM
[5] = second compound 0.1 µM, first compound 0.0316 µM
[6] = second compound 0.1 µM, first compound 0.1 µM
[7] = second compound 0.316 µM, first compound 0.000316 µM
[8] = second compound 0.316 µM, first compound 0.001 µM
[9] = second compound 0.316 µM, first compound 0.00316 µM
[10] = second compound 0.316 µM, first compound 0.01 µM
[11] = second compound 0.316 µM, first compound 0.0316 µM
[12] = second compound 0.316 µM, first compound 0.1 µM
[13] = second compound 1 µM, first compound 0.000316 µM
[14] = second compound 1 µM, first compound 0.001 µM
[15] = second compound 1 µM, first compound 0.00316 µM
[16] = second compound 1 µM, first compound 0.01 µM
[17] = second compound 1 µM, first compound 0.0316 µM
[18] = second compound 1 µM, first compound 0.1 µM
[19] = second compound 3.16 µM, first compound 0.000316 µM
[20] = second compound 3.16 µM, first compound 0.001 µM
[21] = second compound 3.16 µM, first compound 0.00316 µM
[22] = second compound 3.16 µM, first compound 0.01 µM
[23] = second compound 3.16 µM, first compound 0.0316 µM
[24] = second compound 3.16 µM, first compound 0.1 µM
[25] = second compound 10 µM, first compound 0.000316 µM
[26] = second compound 10 µM, first compound 0.001 µM
[27] = second compound 10 µM, first compound 0.00316 µM
[28] = second compound 10 µM, first compound 0.01 µM
[29] = second compound 10 µM, first compound 0.0316 µM
[30] = second compound 10 µM, first compound 0.1 µM
[31] = second compound 0.1 µM, first compound 0.316 µM
[32] = second compound 0.1 µM, first compound 1 µM
[33] = second compound 0.1 µM, first compound 3.16 µM
[34] = second compound 0.1 µM, first compound 10 µM
[35] = second compound 0.316 µM, first compound 0.316 µM
[36] = second compound 0.316 µM, first compound 1 µM
[37] = second compound 0.316 µM, first compound 3.16 µM
[38] = second compound 0.316 µM, first compound 10 µM
[39] = second compound 1 µM, first compound 0.316 µM
[40] = second compound 1 µM, first compound 1 µM
[41] = second compound 1 µM, first compound 3.16 µM
[42] = second compound 1 µM, first compound 10 µM
[43] = second compound 3.16 µM, first compound 0.316 µM
[44] = second compound 3.16 µM, first compound 1 µM
[45] = second compound 3.16 µM, first compound 3.16 µM
[46] = second compound 3.16 µM, first compound 10 µM
[47] = second compound 10 µM, first compound 0.316 µM
[48] = second compound 10 µM, first compound 1 µM
[49] = second compound 10 µM, first compound 3.16 µM
[50] = second compound 10 µM, first compound 10 µM
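Note: spheroids exposed to agents for seven days before readout.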
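Throughout, for viability, T/C: percent of DMSO vehicle control viability.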

| SMILES | IC50 (second compound 0.1 µM) | IC50 (second compound 0.316 µM) | IC50 (second compound 1 µM) | IC50 (second compound 3.16 µM) | IC50 (second compound 10 µM) | viability, T/C [5] | viability, T/C [6] | viability, T/C [11] | viability, T/C [12] | viability, T/C [17] | viability, T/C [18] | viability, T/C [23] | viability, T/C [24] | viability, T/C [29] | viability, T/C [30] | viability, T/C [31] | viability, T/C [32] | viability, T/C [33] | viability, T/C [34] | viability, T/C [35] | further results |
| --- | --- | --- | --- | --- | --- | --- | --- | --- | --- | --- | --- | --- | --- | --- | --- | --- | --- | --- | --- | --- | --- |
| CN(C)C/C=C/C(=O)Nc1cc2c(Nc3ccc(F)c(Cl)c3)ncnc2cc1O[C@H]1CCOC1 + C=CC(=O)N1CCN(c2nc(=O)n(-c3c(C)ccnc3C(C)C)c3nc(-c4c(O)cccc4F)c(F)cc23)C(C)C1 | > 0.1 µM | > 0.1 µM | > 0.1 µM | > 0.1 µM | > 0.1 µM | 84.9% | 61.9% | 68.9% | 63% | 64.5% | 85% | 78.8% | 69.2% | 73.5% | 68.7% | – | – | – | – | – | viability, T/C [1]: 110%; viability, T/C [2]: 116%; viability, T/C [3]: 84.9%; viability, T/C [4]: 81.3%; viability, T/C [7]: 105%; viability, T/C [8]: 86.5%; viability, T/C [9]: 80.4%; viability, T/C [10]: 90.7%; viability, T/C [13]: 87.1%; viability, T/C [14]: 96.1%; viability, T/C [15]: 79.9%; viability, T/C [16]: 70.8%; viability, T/C [19]: 102%; viability, T/C [20]: 97.8%; viability, T/C [21]: 91.3%; viability, T/C [22]: 88.7%; viability, T/C [25]: 101%; viability, T/C [26]: 102%; viability, T/C [27]: 79.7%; viability, T/C [28]: 83.6% |
| CC(C)NCC(C(=O)N1CCN(c2ncnc3c2C(C)CC3O)CC1)c1ccc(Cl)cc1 (stereo not given) + C=CC(=O)N1CCN(c2nc(=O)n(-c3c(C)ccnc3C(C)C)c3nc(-c4c(O)cccc4F)c(F)cc23)C(C)C1 | > 10 µM | > 10 µM | > 10 µM | > 10 µM | > 10 µM | 108% | 95.9% | 107% | 105% | 103% | 119% | 114% | 106% | 95.3% | 97.9% | 98.6% | 109% | 102% | 86.4% | 99.7% | viability, T/C [36]: 92.2%; viability, T/C [37]: 84.8%; viability, T/C [38]: 91.6%; viability, T/C [39]: 99.9%; viability, T/C [40]: 99.5%; viability, T/C [41]: 88.9%; viability, T/C [42]: 92.8%; viability, T/C [43]: 105%; viability, T/C [44]: 87.2%; viability, T/C [45]: 78%; viability, T/C [46]: 79.5%; viability, T/C [47]: 103%; viability, T/C [48]: 103%; viability, T/C [49]: 73.9%; viability, T/C [50]: 104% |
| CC1OCC2(CCN(c3cnc(Sc4ccnc(N)c4Cl)c(N)n3)CC2)C1N (stereo not given) + C=CC(=O)N1CCN(c2nc(=O)n(-c3c(C)ccnc3C(C)C)c3nc(-c4c(O)cccc4F)c(F)cc23)C(C)C1 | 8.95 µM | 6.56 µM | > 10 µM | 9.85 µM | > 10 µM | 89.8% | 87.4% | 89.5% | 88.3% | 84.2% | 90.5% | 80.5% | 74.9% | 85.1% | 75.2% | 81.8% | 82.3% | 70.7% | 47.6% | 89.3% | viability, T/C [36]: 70.6%; viability, T/C [37]: 60.4%; viability, T/C [38]: 44.6%; viability, T/C [39]: 77%; viability, T/C [40]: 82.7%; viability, T/C [41]: 60.6%; viability, T/C [42]: 51.6%; viability, T/C [43]: 75.6%; viability, T/C [44]: 72.4%; viability, T/C [45]: 63.4%; viability, T/C [46]: 49.8%; viability, T/C [47]: 74%; viability, T/C [48]: 69.6%; viability, T/C [49]: 57%; viability, T/C [50]: 51.5% |
| Cn1ncnc1[C@H]1c2n[nH]c(=O)c3cc(F)cc(c23)N[C@@H]1c1ccc(F)cc1 + CNCc1ccccc1-c1csc(C(C)Nc2nc(C)nc3cc(OC)c(OC)cc23)c1 | > 0.1 µM | > 0.1 µM | > 0.1 µM | < 0.000316 µM | < 0.000316 µM | 110% | 99.8% | 108% | 79.5% | 92.3% | 78.5% | 28.2% | 34.9% | 0.15% | 0.24% | – | – | – | – | – | viability, T/C [1]: 103%; viability, T/C [2]: 108%; viability, T/C [3]: 114%; viability, T/C [4]: 84.5%; viability, T/C [7]: 93.2%; viability, T/C [8]: 96.4%; viability, T/C [9]: 105%; viability, T/C [10]: 94.5%; viability, T/C [13]: 94.4%; viability, T/C [14]: 91.9%; viability, T/C [15]: 87.4%; viability, T/C [16]: 94.3%; viability, T/C [19]: 28.7%; viability, T/C [20]: 41.5%; viability, T/C [21]: 30.3%; viability, T/C [22]: 38.9%; viability, T/C [25]: 0.15%; viability, T/C [26]: 0.19%; viability, T/C [27]: 0.15%; viability, T/C [28]: 0.14% |
| COc1cc2nccc(Oc3ccc(NC(=O)C4(C(=O)Nc5ccc(F)cc5)CC4)cc3)c2cc1OC + COc1cc2nc(C)nc(NC(C)c3cc(N)cc(C(F)(F)F)c3)c2cc1OC1CCOC1 | > 10 µM | > 10 µM | 5.93 µM | 4.91 µM | 5.18 µM | 99.1% | 101% | 106% | 110% | 101% | 106% | 99.6% | 97.3% | 93.8% | 89.1% | 118% | 89.4% | 87.6% | 52.2% | 113% | viability, T/C [36]: 109%; viability, T/C [37]: 92.2%; viability, T/C [38]: 59.3%; viability, T/C [39]: 101%; viability, T/C [40]: 92.5%; viability, T/C [41]: 76.4%; viability, T/C [42]: 28.3%; viability, T/C [43]: 109%; viability, T/C [44]: 104%; viability, T/C [45]: 70.2%; viability, T/C [46]: 17.7%; viability, T/C [47]: 86.5%; viability, T/C [48]: 82.3%; viability, T/C [49]: 81.7%; viability, T/C [50]: 7.51% |
| CCNC(=O)CC1N=C(c2ccc(Cl)cc2)c2cc(OC)ccc2-n2c(C)nnc21 (stereo not given) + C=CC(=O)N1CCN(c2nc(=O)n(-c3c(C)ccnc3C(C)C)c3nc(-c4c(O)cccc4F)c(F)cc23)C(C)C1 | > 10 µM | > 10 µM | > 10 µM | > 10 µM | > 10 µM | 107% | 123% | 115% | 105% | 107% | 102% | 98.2% | 106% | 102% | 105% | 112% | 102% | 111% | 98.6% | 106% | viability, T/C [36]: 93.1%; viability, T/C [37]: 103%; viability, T/C [38]: 78.5%; viability, T/C [39]: 99%; viability, T/C [40]: 108%; viability, T/C [41]: 105%; viability, T/C [42]: 101%; viability, T/C [43]: 105%; viability, T/C [44]: 99.9%; viability, T/C [45]: 88.9%; viability, T/C [46]: 81.3%; viability, T/C [47]: 97.7%; viability, T/C [48]: 102%; viability, T/C [49]: 91.8%; viability, T/C [50]: 81.9% |

Source: PubChem BioAssay AID1963874 (Molecular Pharmacology Branch, DTP, NCI, 2024)
